Literature values, collected in patent publication US20240350389A1, “METHOD FOR DYEING KERATINOUS MATERIAL, IN PARTICULAR HUMAN HAIR” (HENKEL AG & CO. KGAA, priority 2021, published 2024).

Settings: 25° C.

| SMILES | water solubility | solubility in water |
| --- | --- | --- |
| CCN(Cc1cccc(S(=O)(=O)[O-])c1)c1ccc(C(=C2C=CC(=[N+](CC)Cc3cccc(S(=O)(=O)[O-])c3)C=C2)c2ccccc2S(=O)(=O)[O-])cc1.[Na+].[Na+] [Acid Blue 9] | more than 20 wt % | – |
| O=S(=O)([O-])c1ccc(N=Nc2c(O)ccc3ccccc23)cc1.[Na+] [Acid Orange 7, sodium salt of 4-[(2-hydroxy-1-naphthyl)azo]benzene sulfonate] | – | more than 7 g/L |
| Nc1cc(S(=O)(=O)[O-])cc2cc(S(=O)(=O)[O-])c(N=Nc3ccccc3)c(O)c12.[Na+].[Na+] [Acid Red 33, disodium salt of 5-amino4-hydroxy-3-(phenylazo)-naphthalene2,7-disulfonate] | – | 2500 µg/mL |
| O=[N+]([O-])c1cc([N+](=O)[O-])c2ccc(S(=O)(=O)O)cc2c1O.[Na].[Na] [Acid yellow 1, 8-hydroxy-5,7-dinitro-2-naphthalenesulfonic acid disodium] | – | at least 40 g/L |
